ChEMBL document CHEMBL1122308, “Bicyclic lactones derived from kainic acid as novel selective antagonists of neuroexcitatory amino acids” (J Med Chem, 1983)
One block for each compound: values may come before it.

Experiments:
Assay type in all cases: functional
Rattus norvegicus [1] = species: Rattus norvegicus; assay: Concentration at which the compound inhibits half of the response of kainic acid (KA)
Rattus norvegicus [2] = species: Rattus norvegicus; assay: Percentage response to 0.1 mM of quisqualic acid at 1 mM in rat striatum slices.
Rattus norvegicus [3] = species: Rattus norvegicus; assay: Percentage response to 30 uM of N-methyl-D-aspartic acid (NMDA) at 1 mM in rat striatum slices.
Rattus norvegicus [4] = species: Rattus norvegicus; assay: Percentage response to 0.1 mM of kainic acid (KA) at 1 mM in rat striatum slices.
Rattus norvegicus [5] = species: Rattus norvegicus; assay: Percentage response to 0.5 mM of L-Glutamic acid at 1 mM in rat striatum slices.
Rattus norvegicus [6] = species: Rattus norvegicus; assay: Percentage response to 0.1 mM of kainic acid (KA) at 2 mM in rat striatum slices.
Rattus norvegicus [7] = species: Rattus norvegicus; assay: Percentage response to 0.1 mM of quisqualic acid at 2 mM in rat striatum slices.
Rattus norvegicus [8] = species: Rattus norvegicus; assay: Concentration at which the compound inhibits half of the response of N-methyl-D-aspartic acid (NMDA)
Rattus norvegicus [9] = species: Rattus norvegicus; assay: Percentage response to 0.5 mM of L-Glutamic acid at 2 mM in rat striatum slices.
Rattus norvegicus [10] = species: Rattus norvegicus; assay: Percentage response to 30 uM of N-methyl-D-aspartic acid (NMDA) at 2 mM in rat striatum slices.
Rattus norvegicus [11] = species: Rattus norvegicus; assay: Percentage response to 0.5 mM of L-Glutamic acid at 3 mM in rat striatum slices.
Rattus norvegicus [12] = species: Rattus norvegicus; assay: Percentage response to 30 uM of N-methyl-D-aspartic acid (NMDA) at 3 mM in rat striatum slices.
Rattus norvegicus [13] = species: Rattus norvegicus; assay: Percentage response to 0.1 mM of quisqualic acid at 3 mM in rat striatum slices.
Rattus norvegicus [14] = species: Rattus norvegicus; assay: Percentage response to 0.1 mM of kainic acid (KA) at 3 mM in rat striatum slices.
Rattus norvegicus [15] = species: Rattus norvegicus; assay: Percentage response to 0.5 mM of L-Glutamic acid at 1.5 mM in rat striatum slices.
Rattus norvegicus [16] = species: Rattus norvegicus; assay: Percentage response to 30 uM of N-methyl-D-aspartic acid (NMDA) at 1.5 mM in rat striatum slices.

- IC50 (Rattus norvegicus [1]): 0.2 mM
Structure (SMILES): CC1(CSc2ccccc2)OC(=O)C[C@@H]2[C@H](C(=O)O)NC[C@@H]21 (stereo partly drawn)
- Response (Rattus norvegicus [2]): <53%
- Response (Rattus norvegicus [3]): <36%
- Response (Rattus norvegicus [4]): <0%
- Response (Rattus norvegicus [5]): 87%

Structure (SMILES): CC1(C)OC(=O)C[C@@H]2[C@@H](C(=O)O)NC[C@@H]21
- IC50 (Rattus norvegicus [1]): 3 mM
- Response (Rattus norvegicus [6]): 66%
- Response (Rattus norvegicus [7]): 94%
- IC50 (Rattus norvegicus [8]): 0.3 mM
- Response (Rattus norvegicus [9]): 96%
- Response (Rattus norvegicus [10]): <16%

Structure (SMILES): CC1(CO)OC(=O)C[C@@H]2[C@@H](C(=O)O)NC[C@@H]21 (stereo partly drawn)
- IC50 (Rattus norvegicus [1]): 3 mM
- Response (Rattus norvegicus [11]): 106%
- IC50 (Rattus norvegicus [8]): 2 mM
- Response (Rattus norvegicus [12]): <36%
- Response (Rattus norvegicus [13]): 94%
- Response (Rattus norvegicus [14]): <50%

Structure (SMILES): NC(CCCP(=O)(O)O)C(=O)O (stereo not drawn)
- Response (Rattus norvegicus [2]): <91%
- Response (Rattus norvegicus [3]): <0%
- Response (Rattus norvegicus [4]): 118%
- Response (Rattus norvegicus [5]): <64%

Structure (SMILES): CC1(CSc2ccccc2)OC(=O)C[C@@H]2[C@@H](C(=O)O)NC[C@@H]21 (stereo partly drawn)
- Response (Rattus norvegicus [2]): 76%
- Response (Rattus norvegicus [15]): 84%
- Response (Rattus norvegicus [4]): <16%
- Response (Rattus norvegicus [16]): <10%

Structure (SMILES): CC1(CI)OC(=O)C[C@@H]2[C@@H](C(=O)O)NC[C@@H]21 (stereo partly drawn)
- Response (Rattus norvegicus [6]): <15%
- Response (Rattus norvegicus [7]): 96%
- Response (Rattus norvegicus [9]): 74%
- Response (Rattus norvegicus [10]): <42%

Structure (SMILES): CC1(CI)OC(=O)C[C@@H]2[C@H](C(=O)O)NC[C@@H]21 (stereo partly drawn)
- Response (Rattus norvegicus [6]): <8%
- Response (Rattus norvegicus [7]): 111%
- Response (Rattus norvegicus [9]): 79%
- Response (Rattus norvegicus [10]): <49%
